Values of other authors in patent US20190275032A1 (Boehringer Ingelheim International GmbH, priority 2016, published 2019).

Tests used:
patients with IPF [1] = conditions: both INPULSIS trials, nintedanib 150 mg twice daily versus placebo
PDGFR-α and-β = conditions: normal human lung fibroblasts in vitro
patients with IPF [2] = system: patients with IPF

Row | SMILES | total lung collagen (mouse models of IPF; IPF mouse models) | lymphocyte and neutrophil counts in the bronchoalveolar lavage fluid (mouse models of IPF; two different mouse models of IPF) | reduction of the annual rate of decline in FVC (mL/year) (patients with IPF [1]) | PDGF- or FGF-2-stimulated migration of lung fibroblasts (human lung fibroblasts; fibroblasts from patients with IPF) | TGF-β-induced fibroblast to myofibroblast transformation (human lung fibroblasts; primary human lung fibroblasts from IPF patients) | PDGFR-α and -β activation (PDGFR-α and-β) | exposure in patients with hepatic impairment (Child Pugh A, Child Pugh B) | elimination via biliary/faecal excretion (in vivo) [%] | primary endpoint of change from baseline FVC % predicted (patients with IPF [2]; ASCEND Phase III trial) | primary FVC lung function endpoint (patients with IPF [2]; international Phase III CAPACITY program) | decline of vital capacity (patients with IPF [2]; two local trials in Japan)
1 | COC(=O)c1ccc2c(c1)NC(=O)/C2=C(\Nc1ccc(N(C)C(=O)CN2CCN(C)CC2)cc1)c1ccccc1 [Nintedanib, 3-Z-[1-(4-(N-((4-methyl-piperazin-1-yl)-methylcarbonyl)-N-methyl-amino)-anilino)-1-phenyl-methylene]-6-methoxycarbonyl-2-indolinone] | significant reductions | significant reductions | approximately 50% | attenuated | inhibited | inhibit | Exposure increased | > 90 |  |  | 
2 | Cc1ccc(=O)n(-c2ccccc2)c1 [Pirfenidone, 5-methyl-1-phenyl-2(1H)-Pyridinone] |  |  |  |  |  |  |  |  | met the primary endpoint | demonstrated efficacy on the primary FVC lung function endpoint in only one of two confirmatory trials | reduced decline
